Molecular target: Matrix metalloproteinase-9 (Homo sapiens, UniProt P14780);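 note: inhibition of isolated MMP-9 enzyme activity toward a synthetic peptide substrate, from the DrugMatrix protease screening panel; in other assays of this panel Not Active means under 50% inhibition at 10 µM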
Sequence (P14780 whole entry): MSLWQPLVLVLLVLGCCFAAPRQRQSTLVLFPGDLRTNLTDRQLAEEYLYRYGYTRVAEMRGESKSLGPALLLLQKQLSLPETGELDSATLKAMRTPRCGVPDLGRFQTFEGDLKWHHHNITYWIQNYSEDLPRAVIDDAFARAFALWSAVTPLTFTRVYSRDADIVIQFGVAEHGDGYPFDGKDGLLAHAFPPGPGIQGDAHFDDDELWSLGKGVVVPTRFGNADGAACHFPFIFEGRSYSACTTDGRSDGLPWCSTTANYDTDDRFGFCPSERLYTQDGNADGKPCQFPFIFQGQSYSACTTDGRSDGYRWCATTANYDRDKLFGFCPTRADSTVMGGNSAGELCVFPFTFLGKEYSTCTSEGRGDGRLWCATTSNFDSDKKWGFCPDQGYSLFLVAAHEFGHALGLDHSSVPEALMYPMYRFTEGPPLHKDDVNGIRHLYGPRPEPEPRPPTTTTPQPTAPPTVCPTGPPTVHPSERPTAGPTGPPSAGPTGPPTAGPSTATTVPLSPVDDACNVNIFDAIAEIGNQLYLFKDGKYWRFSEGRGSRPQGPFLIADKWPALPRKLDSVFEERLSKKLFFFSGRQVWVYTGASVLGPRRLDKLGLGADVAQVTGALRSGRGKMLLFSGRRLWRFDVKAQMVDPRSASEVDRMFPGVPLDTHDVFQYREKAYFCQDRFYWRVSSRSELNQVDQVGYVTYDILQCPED
Type: cell-based
Conditions: not given
In the case of O=C(O)CC(O)(CC(=O)O)C(=O)O [CITRIC ACID], the IC50 is reported as “Not Active”.
In the case of CC(C)NCC(O)c1ccccc1Cl (stereo unspecified) [CLORPRENALINE], the IC50 is reported as “Not Active”.
For CN1CCN(C(c2ccccc2)c2ccccc2)CC1 [CYCLIZINE], the IC50 was “Not Active”.
In the case of CN1C[C@@H]2C[C@H]1CN2c1cc2c(cc1F)c(=O)c(C(=O)O)cn2C1CC1 [DANOFLOXACIN], the IC50 is reported as “Not Active”.
With COc1cccc2c1C(=O)c1c(O)c3c(c(O)c1C2=O)C[C@@](O)(C(C)=O)C[C@@H]3O[C@H]1C[C@H](N)[C@H](O)[C@H](C)O1 [DAUNORUBICIN] the IC50 was “Not Active”.

Molecular target: Substance-P receptor (Homo sapiens, UniProt P25103); note: in other assays of this panel Not Active means under 50% inhibition at 10 µM
Sequence (P25103 whole entry): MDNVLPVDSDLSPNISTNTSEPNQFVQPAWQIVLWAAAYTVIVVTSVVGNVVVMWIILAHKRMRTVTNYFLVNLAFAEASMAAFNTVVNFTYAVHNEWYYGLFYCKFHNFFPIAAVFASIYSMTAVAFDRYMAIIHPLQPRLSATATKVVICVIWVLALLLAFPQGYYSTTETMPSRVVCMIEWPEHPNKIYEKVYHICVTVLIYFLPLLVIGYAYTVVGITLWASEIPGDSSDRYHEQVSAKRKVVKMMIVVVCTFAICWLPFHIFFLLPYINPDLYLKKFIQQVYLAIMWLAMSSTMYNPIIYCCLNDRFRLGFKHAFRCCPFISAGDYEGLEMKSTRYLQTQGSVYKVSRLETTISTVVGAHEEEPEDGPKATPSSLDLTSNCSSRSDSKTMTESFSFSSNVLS
Type: cell membranes, CHO, Membrane
Conditions: cho
In the case of O=C(O)CC(O)(CC(=O)O)C(=O)O [CITRIC ACID], the IC50 is reported as “Not Active”.
With CC(C)NCC(O)c1ccccc1Cl (stereo unspecified) [CLORPRENALINE] the IC50 was “Not Active”.
In the case of CN1CCN(C(c2ccccc2)c2ccccc2)CC1 [CYCLIZINE], the IC50 is reported as “Not Active”.
With CN1C[C@@H]2C[C@H]1CN2c1cc2c(cc1F)c(=O)c(C(=O)O)cn2C1CC1 [DANOFLOXACIN] the IC50 was “Not Active”.
In the case of COc1cccc2c1C(=O)c1c(O)c3c(c(O)c1C2=O)C[C@@](O)(C(C)=O)C[C@@H]3O[C@H]1C[C@H](N)[C@H](O)[C@H](C)O1 [DAUNORUBICIN], the IC50 is reported as “Not Active”.

Molecular target: Insulin receptor (Rattus norvegicus, UniProt P15127); note: in other assays of this panel Not Active means under 50% inhibition at 10 µM
Sequence (P15127 27-759 limits assumed): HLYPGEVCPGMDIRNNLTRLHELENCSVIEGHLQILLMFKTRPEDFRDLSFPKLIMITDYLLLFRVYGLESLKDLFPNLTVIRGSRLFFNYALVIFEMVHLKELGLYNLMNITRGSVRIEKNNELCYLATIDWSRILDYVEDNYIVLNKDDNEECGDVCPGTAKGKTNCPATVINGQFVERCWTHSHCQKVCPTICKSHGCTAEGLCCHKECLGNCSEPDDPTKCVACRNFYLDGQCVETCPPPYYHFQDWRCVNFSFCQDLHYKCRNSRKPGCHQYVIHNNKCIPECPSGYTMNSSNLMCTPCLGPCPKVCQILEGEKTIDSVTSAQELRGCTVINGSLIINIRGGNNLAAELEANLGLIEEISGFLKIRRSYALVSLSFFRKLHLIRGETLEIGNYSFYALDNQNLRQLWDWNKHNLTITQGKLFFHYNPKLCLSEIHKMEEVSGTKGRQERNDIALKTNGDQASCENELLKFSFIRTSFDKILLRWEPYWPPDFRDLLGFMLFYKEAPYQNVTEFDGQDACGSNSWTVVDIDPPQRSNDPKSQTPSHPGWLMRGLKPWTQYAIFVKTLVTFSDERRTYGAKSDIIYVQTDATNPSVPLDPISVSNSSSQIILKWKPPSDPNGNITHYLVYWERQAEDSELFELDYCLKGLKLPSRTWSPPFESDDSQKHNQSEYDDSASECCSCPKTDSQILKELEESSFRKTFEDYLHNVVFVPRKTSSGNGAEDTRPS
Sequence (P15127 764-1383 limits assumed): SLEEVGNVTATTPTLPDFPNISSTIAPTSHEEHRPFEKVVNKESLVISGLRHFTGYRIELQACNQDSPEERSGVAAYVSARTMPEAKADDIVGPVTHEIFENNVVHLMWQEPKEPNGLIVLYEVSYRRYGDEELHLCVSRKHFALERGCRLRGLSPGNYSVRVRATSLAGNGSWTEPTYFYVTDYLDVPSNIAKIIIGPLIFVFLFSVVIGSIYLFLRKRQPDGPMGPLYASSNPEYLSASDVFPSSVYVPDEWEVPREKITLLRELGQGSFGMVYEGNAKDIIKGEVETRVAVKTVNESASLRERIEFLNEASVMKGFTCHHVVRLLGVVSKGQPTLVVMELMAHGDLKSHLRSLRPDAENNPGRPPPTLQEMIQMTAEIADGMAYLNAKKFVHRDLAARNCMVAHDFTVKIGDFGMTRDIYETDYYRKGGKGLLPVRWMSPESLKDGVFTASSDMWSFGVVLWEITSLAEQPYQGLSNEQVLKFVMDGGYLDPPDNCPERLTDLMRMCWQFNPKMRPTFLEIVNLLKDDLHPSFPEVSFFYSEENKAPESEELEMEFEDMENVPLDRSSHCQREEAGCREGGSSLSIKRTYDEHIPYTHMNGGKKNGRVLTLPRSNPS
Type: cell membranes, Wistar, Liver, Membrane
Conditions: not given
For O=C(O)CC(O)(CC(=O)O)C(=O)O [CITRIC ACID], the IC50 was “Not Active”.
For CC(C)NCC(O)c1ccccc1Cl (stereo unspecified) [CLORPRENALINE], the IC50 was “Not Active”.
With CN1CCN(C(c2ccccc2)c2ccccc2)CC1 [CYCLIZINE] the IC50 was “Not Active”.
With CN1C[C@@H]2C[C@H]1CN2c1cc2c(cc1F)c(=O)c(C(=O)O)cn2C1CC1 [DANOFLOXACIN] the IC50 was “Not Active”.
With COc1cccc2c1C(=O)c1c(O)c3c(c(O)c1C2=O)C[C@@](O)(C(C)=O)C[C@@H]3O[C@H]1C[C@H](N)[C@H](O)[C@H](C)O1 [DAUNORUBICIN] the IC50 was “Not Active”.

Molecular target: Protein kinase C alpha type (Homo sapiens, UniProt P17252);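 note: inhibition of PKCalpha kinase activity measured in an enzyme assay with histone as the phosphorylation substrate; in other assays of this panel Not Active means under 50% inhibition at 10 µM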
Type: cell-based
Conditions: sf9
With O=C(O)CC(O)(CC(=O)O)C(=O)O [CITRIC ACID] the IC50 was “Not Active”.
For CC(C)NCC(O)c1ccccc1Cl (stereo unspecified) [CLORPRENALINE], the IC50 was “Not Active”.
With CN1CCN(C(c2ccccc2)c2ccccc2)CC1 [CYCLIZINE] the IC50 was “Not Active”.
For CN1C[C@@H]2C[C@H]1CN2c1cc2c(cc1F)c(=O)c(C(=O)O)cn2C1CC1 [DANOFLOXACIN], the IC50 was “Not Active”.
In the case of COc1cccc2c1C(=O)c1c(O)c3c(c(O)c1C2=O)C[C@@](O)(C(C)=O)C[C@@H]3O[C@H]1C[C@H](N)[C@H](O)[C@H](C)O1 [DAUNORUBICIN], the IC50 is reported as “Not Active”.

Molecular target: T1, Muscarinic acetylcholine receptor M2 (Homo sapiens, UniProt P08172); note: in other assays of this panel Not Active means under 50% inhibition at 10 µM
T1 sequence (P08172 whole entry): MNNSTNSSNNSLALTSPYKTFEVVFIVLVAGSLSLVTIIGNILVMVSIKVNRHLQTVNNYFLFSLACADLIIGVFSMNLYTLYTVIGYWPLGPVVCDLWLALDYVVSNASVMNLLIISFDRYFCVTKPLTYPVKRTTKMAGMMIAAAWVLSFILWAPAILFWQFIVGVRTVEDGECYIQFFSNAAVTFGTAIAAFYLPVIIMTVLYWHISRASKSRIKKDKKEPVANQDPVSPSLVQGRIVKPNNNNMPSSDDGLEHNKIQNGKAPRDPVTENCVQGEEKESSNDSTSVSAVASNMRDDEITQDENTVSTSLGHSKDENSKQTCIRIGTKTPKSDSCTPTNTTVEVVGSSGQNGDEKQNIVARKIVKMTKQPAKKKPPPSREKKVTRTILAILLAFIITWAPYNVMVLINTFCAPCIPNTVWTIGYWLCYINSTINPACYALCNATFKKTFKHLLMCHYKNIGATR
Type: cell membranes, CHO-K1, Membrane
Conditions: cho-k1
In the case of O=C(O)CC(O)(CC(=O)O)C(=O)O [CITRIC ACID], the IC50 is reported as “Not Active”.
For CC(C)NCC(O)c1ccccc1Cl (stereo unspecified) [CLORPRENALINE], the IC50 was “Not Active”.
With CN1C[C@@H]2C[C@H]1CN2c1cc2c(cc1F)c(=O)c(C(=O)O)cn2C1CC1 [DANOFLOXACIN] the IC50 was “Not Active”.
With COc1cccc2c1C(=O)c1c(O)c3c(c(O)c1C2=O)C[C@@](O)(C(C)=O)C[C@@H]3O[C@H]1C[C@H](N)[C@H](O)[C@H](C)O1 [DAUNORUBICIN] the IC50 was “Not Active”.

Same assay, conditions: read-out: IC50
Molecule CN1CCN(C(c2ccccc2)c2ccccc2)CC1 [CYCLIZINE] has an IC50 of 1160 nM.

Same assay, conditions: read-out: Ki
CN1CCN(C(c2ccccc2)c2ccccc2)CC1 [CYCLIZINE] showed a Ki of 412 nM.

Tested on: not listed separately
Experiment: DRUGMATRIX: Glutamate, Kainate radioligand binding (ligand: [3H] Kainic acid)
Type: cell membranes, Rattus norvegicus, Wistar, Brain, Membrane
Conditions: Not Active = under 50% inhibition at 10 µM
With O=C(O)CC(O)(CC(=O)O)C(=O)O [CITRIC ACID] the IC50 was “Not Active” and the Ki was “Not Active”.
With CC(C)NCC(O)c1ccccc1Cl (stereo unspecified) [CLORPRENALINE] the IC50 was “Not Active” and the Ki was “Not Active”.
With CN1CCN(C(c2ccccc2)c2ccccc2)CC1 [CYCLIZINE] the IC50 was “Not Active” and the Ki was “Not Active”.
With CN1C[C@@H]2C[C@H]1CN2c1cc2c(cc1F)c(=O)c(C(=O)O)cn2C1CC1 [DANOFLOXACIN] the IC50 was “Not Active” and the Ki was “Not Active”.
With COc1cccc2c1C(=O)c1c(O)c3c(c(O)c1C2=O)C[C@@](O)(C(C)=O)C[C@@H]3O[C@H]1C[C@H](N)[C@H](O)[C@H](C)O1 [DAUNORUBICIN] the IC50 was “Not Active” and the Ki was “Not Active”.

Molecular target: T2, 3-hydroxy-3-methylglutaryl-coenzyme A reductase (Homo sapiens, UniProt P04035)
T2 sequence (P04035 whole entry): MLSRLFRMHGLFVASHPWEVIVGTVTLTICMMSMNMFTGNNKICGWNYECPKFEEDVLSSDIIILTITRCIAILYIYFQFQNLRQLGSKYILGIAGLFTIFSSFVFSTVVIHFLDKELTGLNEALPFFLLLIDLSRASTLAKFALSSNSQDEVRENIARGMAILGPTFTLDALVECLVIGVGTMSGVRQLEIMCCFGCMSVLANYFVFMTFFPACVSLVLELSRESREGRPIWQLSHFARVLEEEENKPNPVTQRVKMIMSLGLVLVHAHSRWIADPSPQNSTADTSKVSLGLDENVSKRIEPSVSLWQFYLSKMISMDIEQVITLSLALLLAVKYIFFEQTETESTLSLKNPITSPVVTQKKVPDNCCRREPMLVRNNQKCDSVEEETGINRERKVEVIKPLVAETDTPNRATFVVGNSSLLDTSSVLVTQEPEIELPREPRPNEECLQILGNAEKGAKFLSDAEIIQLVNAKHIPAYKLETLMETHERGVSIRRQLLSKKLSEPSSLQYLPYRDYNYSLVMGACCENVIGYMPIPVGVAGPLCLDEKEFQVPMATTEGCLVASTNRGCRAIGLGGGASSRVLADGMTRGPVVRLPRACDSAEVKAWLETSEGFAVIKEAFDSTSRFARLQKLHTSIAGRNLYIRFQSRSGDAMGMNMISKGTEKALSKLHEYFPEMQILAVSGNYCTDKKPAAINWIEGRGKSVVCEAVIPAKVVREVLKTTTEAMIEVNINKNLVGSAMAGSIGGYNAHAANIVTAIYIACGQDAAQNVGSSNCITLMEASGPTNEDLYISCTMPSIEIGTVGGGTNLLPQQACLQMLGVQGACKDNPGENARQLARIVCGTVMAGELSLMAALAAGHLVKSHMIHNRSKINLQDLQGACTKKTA
Parameters: species or system Escherichia coli
Conditions: not given
For O=C(O)CC(O)(CC(=O)O)C(=O)O [CITRIC ACID], the IC50 was “Not Active”.
In the case of CC(C)NCC(O)c1ccccc1Cl (stereo unspecified) [CLORPRENALINE], the IC50 is reported as “Not Active”.
With CN1CCN(C(c2ccccc2)c2ccccc2)CC1 [CYCLIZINE] the IC50 was “Not Active”.
In the case of CN1C[C@@H]2C[C@H]1CN2c1cc2c(cc1F)c(=O)c(C(=O)O)cn2C1CC1 [DANOFLOXACIN], the IC50 is reported as “Not Active”.
In the case of COc1cccc2c1C(=O)c1c(O)c3c(c(O)c1C2=O)C[C@@](O)(C(C)=O)C[C@@H]3O[C@H]1C[C@H](N)[C@H](O)[C@H](C)O1 [DAUNORUBICIN], the IC50 is reported as “Not Active”.

Tested on: not listed separately
Experiment: DRUGMATRIX: Tumor Necrosis Factor (TNF), Non-Selective radioligand binding (ligand: [125I] TNF-alpha)
Type: cell membranes, Membrane
Conditions: u-937; Not Active = under 50% inhibition at 10 µM
For O=C(O)CC(O)(CC(=O)O)C(=O)O [CITRIC ACID], the IC50 was “Not Active” and the Ki was “Not Active”.
For CC(C)NCC(O)c1ccccc1Cl (stereo unspecified) [CLORPRENALINE], the IC50 was “Not Active” and the Ki was “Not Active”.
With CN1CCN(C(c2ccccc2)c2ccccc2)CC1 [CYCLIZINE] the IC50 was “Not Active” and the Ki was “Not Active”.
With CN1C[C@@H]2C[C@H]1CN2c1cc2c(cc1F)c(=O)c(C(=O)O)cn2C1CC1 [DANOFLOXACIN] the IC50 was “Not Active” and the Ki was “Not Active”.
In the case of COc1cccc2c1C(=O)c1c(O)c3c(c(O)c1C2=O)C[C@@](O)(C(C)=O)C[C@@H]3O[C@H]1C[C@H](N)[C@H](O)[C@H](C)O1 [DAUNORUBICIN], the IC50 is reported as “Not Active” and the Ki is reported as “Not Active”.

Molecular target: T3, Caspase-1 (Homo sapiens, UniProt P29466)
T3 sequence (P29466 whole entry): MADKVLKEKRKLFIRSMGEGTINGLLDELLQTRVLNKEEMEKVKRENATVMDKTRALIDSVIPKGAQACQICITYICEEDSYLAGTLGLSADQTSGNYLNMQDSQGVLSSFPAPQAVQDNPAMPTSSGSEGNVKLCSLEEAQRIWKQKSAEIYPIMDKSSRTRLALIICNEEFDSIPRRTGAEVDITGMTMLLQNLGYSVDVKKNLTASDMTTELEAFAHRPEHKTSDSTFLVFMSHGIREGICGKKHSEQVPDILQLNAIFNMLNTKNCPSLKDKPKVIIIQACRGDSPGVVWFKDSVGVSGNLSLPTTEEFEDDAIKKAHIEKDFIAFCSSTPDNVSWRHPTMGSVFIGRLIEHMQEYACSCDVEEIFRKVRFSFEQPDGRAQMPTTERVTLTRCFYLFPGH
Parameters: species or system Escherichia coli
Conditions: not given
For O=C(O)CC(O)(CC(=O)O)C(=O)O [CITRIC ACID], the IC50 was “Not Active”.
With CC(C)NCC(O)c1ccccc1Cl (stereo unspecified) [CLORPRENALINE] the IC50 was “Not Active”.
For CN1CCN(C(c2ccccc2)c2ccccc2)CC1 [CYCLIZINE], the IC50 was “Not Active”.
In the case of CN1C[C@@H]2C[C@H]1CN2c1cc2c(cc1F)c(=O)c(C(=O)O)cn2C1CC1 [DANOFLOXACIN], the IC50 is reported as “Not Active”.
With COc1cccc2c1C(=O)c1c(O)c3c(c(O)c1C2=O)C[C@@](O)(C(C)=O)C[C@@H]3O[C@H]1C[C@H](N)[C@H](O)[C@H](C)O1 [DAUNORUBICIN] the IC50 was “Not Active”.

Reference: ChEMBL document CHEMBL1909046, “DrugMatrix in vitro pharmacology data”
